According to patent publication US9629822B2, “Flavonoid based antiviral targets” (UNIVERSITY OF CENTRAL FLORIDA RESEARCH FOUNDATION, INC., priority 2012, dated 2017):

Experiments:
US28 receptor = biological target: T1, US28 receptor (Human cytomegalovirus, UniProt P69332); assay: PathDetect trans Elk1 luciferase reporter gene assay in US28-transfected 293T HEK cells; assay type: cell-based, Human Cytomegalovirus (HCMV); details: for type of activity on the US28 receptor (agonist / inverse agonist / none), in words: Elk1 reporter, US28-transfected HEK cells
T1 construct: expressed in transfected cells; host or cells: HEK 293T cells, transiently transfected
How it was run: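 HEK293T cells transiently transfected with Elk1, Luc and US28 vector (empty pcDNA3 for mock) were dosed with compounds in DMEM/1% FBS with 1% DMSO for 20-24 h at 37° C. Bright-Glo luminescence decrease was read; EC50 is halfway between maximal response and no-compound control, by non-linear regression.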

[1] = 293T HEK cells transiently expressing US28, Elk1 reporter, NE = no effect when tested at 10 μM of compound
[2] = EC50 (μM), 293T HEK cells transiently expressing US28, Elk1 reporter, NE = no effect when tested at 10 μM of compound

T1 sequence (P69332 whole entry): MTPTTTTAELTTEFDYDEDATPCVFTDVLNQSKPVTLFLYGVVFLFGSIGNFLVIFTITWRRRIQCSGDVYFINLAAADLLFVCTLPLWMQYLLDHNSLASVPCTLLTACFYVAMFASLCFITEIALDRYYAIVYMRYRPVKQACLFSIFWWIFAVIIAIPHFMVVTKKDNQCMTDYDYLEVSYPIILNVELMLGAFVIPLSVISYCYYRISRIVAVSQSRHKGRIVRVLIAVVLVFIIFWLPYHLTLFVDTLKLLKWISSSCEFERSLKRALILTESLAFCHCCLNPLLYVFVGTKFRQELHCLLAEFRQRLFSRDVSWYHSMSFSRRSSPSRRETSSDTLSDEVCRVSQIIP

SMILES	melting point [°C]	EC50 (US28 receptor; [2]) [µM]	type of activity on the US28 receptor (agonist / inverse agonist / none), in words (US28 receptor)	EC50 (US28 receptor; [1]) [µM]	other results
COc1ccc(Br)cc1/C=C/C(=O)c1c(O)cccc1OCc1ccccc1 [Compound 8l, (E)-1-(2-(Benzyloxy)-6-hydroxyphenyl)-3-(5-bromo-2-methoxyphenyl)prop-2-en-1-one]					EC50 (μM) (US28 receptor; [1]): Toxic
COc1ccc(Br)cc1/C=C/C(=O)c1ccc2ccccc2c1O [Compound 8m, (E)-3-(5-bromo-2-methoxyphenyl)-1-(1-hydroxynaphthalen-2-yl)prop-2-en-1-one]	117 to 127				EC50 (US28 receptor; pEC50 ± SEM, 293T HEK cells transiently expressing US28, Elk1 reporter): 2.88 µM
COc1ccccc1-c1oc2ccccc2c(=O)c1O [Compound 9a, 3-Hydroxy-2-(2-methoxyphenyl)-4H-chromen-4-one]		4.6	inhibited US28 receptor constitutive activity		Efficacy(%) (US28 receptor; maximum intrinsic activity from dose-response curve, negative = inverse agonism): −19%; Emax (US28 receptor; read-out: Efficacy(%), maximum intrinsic activity from dose-response curve, negative = inverse agonism): -19%
COc1ccc(Br)cc1-c1oc2ccccc2c(=O)c1O [Compound 9b, 2-(5-Bromo-2-methoxyphenyl)-3-hydroxy-4H-chromen-4-one]	159 to 161	> 10	did not show any activity	> 10	
COc1ccc(Cl)cc1-c1oc2ccccc2c(=O)c1O [Compound 9h, 2-(5-chloro-2-methoxyphenyl)-3-hydroxy-4H-chromen-4-one]	160 to 167	1.32	inverse agonist		
COc1ccccc1-c1cc(=O)c2c(O)cccc2o1 [Compound 12a, 5-Hydroxy-2-(2-methoxyphenyl)-4H-chromen-4-one]		> 10		> 10	
COc1ccc(Br)cc1-c1cc(=O)c2c(O)cccc2o1 [Compound 12b, 2-(5-Bromo-2-methoxyphenyl)-5-hydroxy-4H-chromen-4-one]	175 to 180	> 10		> 10	
